From patent US20040121307A1, “Early detection of cellular differentiation using optophoresis” (Genoptix, Inc, priority 2002, published 2004)
Where a name gives a salt, the structure may show the parent alone. Read-outs that look alike come from different tables or passages of the source.

Assays:
U937 cells [1] = assay: Experiment 3: PMA inhibition by bisindolymaleimide, escape velocity; format: cell-based; conditions: for average escape velocity / escape velocity, Ave.: four hours; for escape velocity, Ave.: no PMA
Description: The objective of this experiment was to test the effect of bisindolymaleimide on cells exposed to PMA. Bisindolymaleimide is a Protein Kinase C inhibitor and should block the effect of PMA on U937 cells and their escape velocities. As shown in this and prior experiments, exposure of U937 cells to PMA results in an increase in the escape velocity of the cells. Therefore, it is anticipated that addition of bisindolymaleimide will reduce or eliminate the increase in escape velocity caused by PMA. This has in fact been observed in the data shown below.
Bisindolymaleimide was tested at two concentrations: 200 ng/ml and 50 ng/ml. Samples not treated with bisindolymaleimide received an equivalent amount of the carrier, MeOH, as a control. […] The concentration of PMA tested was 10 ng/ml. Samples not receiving PMA received DMSO.
Once the flasks were prepared, they were incubated at 37° C. 5% CO2 for four hours. At the four hour timepoint, 300 μl of cells were removed from each flask and pelleted at 5000 rpm for 5 minutes. The cells were then resuspended in 6 ml PBS/1% BSA and 60 μl trypan blue.

HL-60 cells = assay: Cellular differentiation of HL-60, fast scan time course; format: cell-based; conditions: 1% DMSO
Method: (§1) Fast scan analysis was also performed on HL-60 cells that were treated with PMA and DMSO. A time course evaluation of PMA treated HL-60 cells was performed with fast scan data taken at 16 hours, 24 hours, 40 hours, and 72 hours post-treatment with 400 ng/ml PMA. A control sample of HL-60 cells was also tested using EtOH as the vehicle for purposes of comparing the differentiated cells with the undifferentiated HL-60 cells. The PMA-treated and control cells were harvested and trypsinized. The samples were then resuspended in PBS/1% BSA. A set of samples was also obtained and left as pellets at 4° C. for subsequent FACS analysis.
A time course evaluation of DMSO treated HL-60 cells was performed with fast scan data taken at 16 hours, 24 hours, 40 hours, and 70 hours post-treatment with 1% DMSO. A control sample of HL-60 cells was also tested for purposes of comparing the differentiated cells with the undifferentiated HL-60 cells. The DMSO-treated and control cells were then harvested and resuspended in PBS/1% BSA. A set of samples was also obtained and left as pellets at 4° C. for subsequent FACS analysis.

[2] = system: CD11b expression in HL-60 cells; assay: FACS CD11b expression profile; format: cell-based; conditions: 1% DMSO
Method: as §1
FIG. 145 illustrates a histogram of the travel distance of the control cells as well as the PMA-treated cells at 16 hours, 24 hours, 40 hours, and 72 hours post-treatment. FIG. 146 illustrates the mean travel distances of the control cells as well as the PMA-treated cells at 16 hours, 24 hours, 40 hours, and 72 hours post-treatment. FIG. 147 illustrates the FACS CD11b expression profile in PMA-treated HL-60 cells as well as the control. CD11b is a known marker of cellular differentiation and is expressed on the surface of differentiating cells. […] The data illustrate that Optophoretic analysis can be used as an assay for the detection and quantification of cellular differentiation. […]

EM-3 cells = assay: Experiments 9 and 9.1: Gleevec and other kinase inhibitors, fast scan; format: cell-based; conditions: for Mean Distance: 1 μM, 48 hours of exposure
Method: A second group of cells were treated with 1 μM Src-Family Protein Tyrosine Kinase Inhibitor Set, obtained from CALBIOCHEM (Cat. No. 567816). The Src Set contained four inhibitors, namely, Genistein, Herbimycin A, Streptomyces sp., PP2, and PP3. A third group of cells were treated with 1 μM Staurosporine. A fourth group of cells were treated with 1 μM TK Inhibitor Set, also obtained from CALBIOCHEM (Cat. No. 657021). The TK Inhibitor Set contained five inhibitors, Genistein, PP2, AG490, AG1296, and AG1478. […] Measurements were taken after 48 hours of exposure.
Fast scan analysis was performed after 48 hours of incubation.

[3] = system: K562, BV-173, EM-3, and U-937 cells; assay: Experiment 8: effect of Gleevec, escape velocity; format: cell-based; conditions: 72 hours after exposure, all four cell types
Description: The U-937 cells have no copies of the gene. The K-562 line of cells has, on average, one copy of the gene per cell. The BV-173line of cells has, on average, three copies of the gene per cell. The EM-3 cell line has, on average, five copies of the gene per cell. […] FIG. 44 illustrates the measured escape velocities (average) for each of the four cell types. […] In addition, the decrease in escape velocity for the Gleevec-treated cells was more pronounced in those cell lines that had higher copy numbers of the Bcr-Abl gene.

Jurkat cells = assay: Experiment 5: TNF-α effect, escape velocity; format: cell-based; conditions: TNF inhibitor added with TNF (FIG. 36)
Method: After 48 hours of incubation, the cells were removed and centrifuged for 5 minutes at 5,000 rpm. Then the cells were resuspended in PBS/1% BSA and trypan blue. A higher power setting, 140 mW instead of 100 mW, was used for this experiment. The escape velocities were measured as follows:
In this experiment Leflunomide and Silymarin were added with TNF to see if the anticipated increase in escape velocity measurements could be counteracted by the presence of the TNF inhibitors.

U937 cells [4] = system: U937 cells
Method: This experiment is designed to compare the effects of two concentrations of sodium salicylate on U937 cells. Sodium salicylate was prepared at two concentrations: 20 mM and 5 mM. The escape velocities of the cells was tested at 5 hours, 24 hours and 47 hours. At each timepoint, 30 μl of sample was pelleted at 5,000 rpm for 5 minutes and then resuspended in PBS/1% BSA and trypan blue.

Chang liver cells [5] = format: cell-based; conditions: human, 1 μm
Method: (§2) This experiment is designed to test the effect of ketoconazole on human liver cells. Ketoconazole induces toxicity in liver cells. The sample cells were Chang liver cells. The concentration of ketoconazole used to treat the cells was 1 μm. Escape velocity and fast scan protocols were applied to determine the impact, if any, of ketoconazole treatment. […] Consequently, Optophoresis was able to detect an effect on the escape velocity of treated cells within 1.5 hours of exposure to ketoconazole. FIGS. 44-45 show the fast scan results of ketoconazole-treated Chang liver cells. […] The ketoconazole-treated cells generally traveled a smaller distance as compared to the non-treated control.

Chang liver cells [6] = assay: Experiment 10: toxicity of ketoconazole, escape velocity; format: cell-based, human; conditions: 1 μm ketoconazole, 1.5 hours of treatment
Method: as §2

CEM/C2 cell line = conditions: cell lines obtained from ATCC; cited from earlier work
U937 cells [7] = system: U937 cells; remark: listed apart in the source
Method: Both groups of cells were incubated with compound in 0.1% DMSO (or simply 0.1% DMSO in the case of the control) for four hours. At the end of the incubation period, the cells were centrifuged down for 3-5 minutes at 5000 rpm in a Model V microcentrifuge (VWR scientific). The supernatant was then aspirated and the pellet resuspended in 1 ml PBS/1% BSA buffer plus 1:10 trypan blue. Escape velocity measurements were then taken of the cells.
The different groups of cells were incubated for various time periods (3, 6, 9, and 24 hours) and escape velocity measurements were made. At the end of the incubation period, the cells were centrifuged down for five minutes at 5000 rpm. The supernatant was then removed and the pellet resuspended in 1 ml PBS/1% BSA buffer plus 1:10 trypan blue. The cells were then loaded onto a cover slip containing agarose that was spin-coated onto the surface thereof.
The cells were incubated for four hours and prepped for testing in accordance with the procedures described above in the prior experiments. The cells were then loaded onto a cover slip containing agarose that was spin-coated onto the surface thereof. Escape velocity measurements were then taken using a 100 mW laser with a diameter of 21.5 pixels.
The groups of cells were incubated (or simply 0.1% DMSO in the case of the control) for six hours. At the end of the incubation period, the cells were centrifuged down for five minutes at 5000 rpm. The supernatant was then removed and the pellet resuspended in 1 ml PBS/1% BSA buffer plus 1:10 trypan blue. The cells were then loaded onto a cover slip containing agarose that was spin-coated onto the surface thereof. Escape velocity measurements were then taken using a 100 mW laser with a diameter of 28 pixels. Escape velocity measurements were then taken of the cells.
The groups of cells were incubated for six hours with compound (or simply DMSO in the case of the control). At the end of the incubation period, the cells were centrifuged down for five minutes at 5000 rpm. […]

CCRF-CEM cells = assay: Experiment 14, fifth experiment: topotecan on sensitive cell line, escape velocity; format: cell-based; conditions: 10 μM topotecan, 6 hours
Method: In a fifth experiment, two different cell lines obtained from ATCC which have varying degrees of sensitivity to topoisomerase I inhibitors such as camptothecin and topotecan were subject to Optophoretic analysis. A group of cells from a parental cell line CCRF-CEM that is sensitive to camptothecin and topotecan were incubated for 6 hours with 10 μM topotecan. Another group of cells from the cell line CEM/C2, which are 970-fold less sensitive to camptothecin and topotecan, were also incubated for 6 hours with 10 μM topotecan. Control cells from both the CCRF-CEM and CEM/C2 cell lines were also tested. The cells were incubated for six hours and prepared for testing in accordance with the procedures described above in the prior experiments. The cells were then loaded onto a cover slip containing agarose that was spin-coated onto the surface thereof. Escape velocity measurements were then taken using a 100 mW laser with a diameter of 28 pixels. […] Optophoretic analysis was thus able to score cross-resistance of camptothecin-resistant cell lines to topotecan, an analog of camptothecin.

**Q.** For `CN(C)CCCn1cc(C2=C(c3c[nH]c4ccccc34)C(=O)NC2=O)c2ccccc21` [Bisindolymalemide], which average escape velocity (U937 cells [1]; 50 ng/ml bisindolymaleimide + 10 ng/ml PMA) is on record?
**A.** Its average escape velocity is 15.1 μm/sec.

**Q.** What about the “escape velocity, Ave.” value (U937 cells [1]; 50 ng/ml bisindolymaleimide) of the same compound?
**A.** The value was 13.9.

**Q.** What about the “effect on the optophoretic shift in escape velocity caused by PMA” value (U937 cells [1]; 200 ng/ml BIMI for 30 minutes followed by 10 ng/ml PMA (FIG. 33)) of the same compound?
**A.** The value was “blocked the optophoretic shift in escape velocity”.

**Q.** What about the average escape velocity (U937 cells [1]; 200 ng/ml bisindolymaleimide + 10 ng/ml PMA) of the same compound?
**A.** Its average escape velocity is 14.5 μm/sec.

**Q.** What about the “escape velocity, Ave.” value (U937 cells [1]; 200 ng/ml bisindolymaleimide) of the same compound?
**A.** Its value is 14.0.

**Q.** What does the source list for `C[S+](C)[O-]` [DMSO, dimethylsulfoxide]?
**A.** course of mean travel distance (HL-60 cells; 16 to 72 hours (FIG. 149)): mean travel distance progressively decreased as time elapsed; time after treatment at which a noticeable decrease in mean travel distance was detected (HL-60 cells; fast scan): ≤ 16 h; time after treatment at which FACS detected a change in CD11b expression levels [2]: 40 h

**Q.** With `Cc1ccc(NC(=O)c2ccc(CN3CCN(C)CC3)cc2)cc1Nc1nccc(-c2cccnc2)n1` [Gleevec, imatinib mesylate] as the compound, how does the “Mean Distance” value (EM-3 cells) read?
**A.** Its value is 13.199 μm.

**Q.** And the “response of mean travel distance to varying concentration” value (EM-3 cells; 0.06 to 4 μM Gleevec, 48 hours)?
**A.** Its value is “dose-dependent response”.

**Q.** And the “escape velocity as compared to non-treated cells” value [3]?
**A.** Its value is “significantly lower escape velocity”.

**Q.** With `Cc1oncc1C(=O)Nc1ccc(C(F)(F)F)cc1` [Leflunomide] as the compound, how does the “effect on the increase in escape velocity caused by TNF” value (Jurkat cells) read?
**A.** The value was “mitigate the increase in escape velocity caused by TNF”.

**Q.** What does the source list for `O=C([O-])c1ccccc1O.[Na+]` [Sodium Salicylate, sodium salicylate]?
**A.** shift in escape velocities (U937 cells [4]; 5 mM and 20 mM salicylic acid, 5 and 24 hours (FIG. 37)): slight but statistically significant shift in escape velocities; escape velocity, Ave. (U937 cells [4]; 5 mM sodium salicylate, 5 hours): 14.1; escape velocity, Ave. (U937 cells [4]; 5 mM sodium salicylate, 24 hours): 15.2; escape velocity, Ave. (U937 cells [4]; 5 mM sodium salicylate, 47 hours): 13.7; escape velocity, Ave. (U937 cells [4]; 20 mM sodium salicylate, 5 hours): 13.3; escape velocity, Ave. (U937 cells [4]; 20 mM sodium salicylate, 24 hours): 16.0; cell viability (trypan blue) (U937 cells [4]; 20 mM, 47 hours): all cells were dead

**Q.** Which “Mean Distance” value (EM-3 cells) does the source give for `CN[C@@H]1C[C@H]2O[C@@](C)([C@@H]1OC)n1c3ccccc3c3c4c(c5c6ccccc6n2c5c31)C(=O)NC4` [Staurosporine] here?
**A.** The value was 9.250 μm.

**Q.** Which mean travel distance (Chang liver cells [5]) does the source give for `CC(=O)N1CCN(c2ccc(OCC3COC(Cn4ccnc4)(c4ccc(Cl)cc4Cl)O3)cc2)CC1` (stereo not drawn) [ketoconazole] here?
**A.** Its mean travel distance is 20.97 μm.

**Q.** And the “escape velocity versus control” value (Chang liver cells [6])?
**A.** The value was “marked decrease in escape velocity”.

**Q.** What does the source list for `CC[C@@]1(O)C(=O)OCc2c1cc1n(c2=O)Cc2cc3c(CN(C)C)c(O)ccc3nc2-1` [topotecan]?
**A.** fold less sensitive than parental CCRF-CEM (CEM/C2 cell line): 970 fold; shift in escape velocity (U937 cells [7]; 4 μg/ml, four hours (FIG. 54)): larger shift in escape velocity as compared to the camptothecin-treated cells; cell death (U937 cells [7]; human, 24 h, 10 μM): virtually all of the treated U937 cells were dead; potency by escape velocity concentration curves (U937 cells [7]; six hours, FIG. 65 versus FIG. 70): higher potency of topotecan as compared to camptothecin; decrease in escape velocity (CCRF-CEM cells): larger decrease in escape velocity as compared to the CEM/C2 cells
